Assay results: publication PMC6934184, “Selective DNA-PKcs inhibition extends the therapeutic index of localized radiotherapy and chemotherapy” (The Journal of Clinical Investigation, 2019)

Target: T1, GSK3B (GSK3 beta) (Homo sapiens, UniProt P49841)
T1 construct: purchased Thermo Fisher Scientific (Life Technologies) SelectScreen
Test: SelectScreen Z'LYTE
Format: biochemical
Procedure, shortened: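 NU5455 was profiled across the SelectScreen Broad panel of kinase activity and binding assays. Z'LYTE reactions such as CSF1R ran at apparent Km ATP, while the Adapta CAMK1 assay used ATP listed as 10. Values are given as percent.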

T1 sequence (P49841 whole entry): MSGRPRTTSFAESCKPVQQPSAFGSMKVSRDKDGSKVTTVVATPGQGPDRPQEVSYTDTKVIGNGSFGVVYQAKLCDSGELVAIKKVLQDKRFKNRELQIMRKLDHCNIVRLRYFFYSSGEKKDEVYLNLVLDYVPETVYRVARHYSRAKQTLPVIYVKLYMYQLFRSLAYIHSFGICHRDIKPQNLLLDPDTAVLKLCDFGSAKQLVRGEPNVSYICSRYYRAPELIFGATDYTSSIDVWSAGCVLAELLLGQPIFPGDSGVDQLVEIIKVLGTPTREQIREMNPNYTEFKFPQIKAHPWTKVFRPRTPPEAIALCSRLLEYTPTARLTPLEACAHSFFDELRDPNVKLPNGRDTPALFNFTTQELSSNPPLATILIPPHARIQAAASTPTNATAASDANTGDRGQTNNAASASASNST

With `CN(C(=O)CN1CCOCC1)c1ccc2sc3c(-c4cccc5c(=O)cc(N6CC7CCC(C6)O7)oc45)cccc3c2c1` [NU5455] the inhibition at 1 µM was -2.5%.
